According to patent publication US10821115B2, “Compounds that inhibit Mcl-1 protein” (priority 2017, dated 2020):
Like-named read-outs stand apart in the source and are kept apart here.

Key:
[1] = test system: human multiple myeloma cell line, OPM-2; experiment: Cell viability assay (OPM-2 10 FBS), CellTiter-Glo; format: cell-based
Summary of the method: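 3000 cells/well, RPMI 1640 + 10% FBS; serial compound dilutions, 16 h, 37 °C/5% CO2.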

[2] = target: recombinant human Mcl-1 (residues 171-327) / Bim interaction (Homo sapiens (Human), UniProt Q07820); experiment: biochemical; format: binding; conditions: read-out: Mcl-1 HTRF IC50
recombinant human Mcl-1 (residues 171-327) / Bim interaction, sequence (Q07820 171-327): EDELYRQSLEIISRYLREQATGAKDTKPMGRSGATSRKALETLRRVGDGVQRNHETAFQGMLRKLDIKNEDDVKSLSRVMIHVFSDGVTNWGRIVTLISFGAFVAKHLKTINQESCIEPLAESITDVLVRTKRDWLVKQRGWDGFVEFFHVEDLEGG

[3] = Homo sapiens, OPM-2, 16 h, read-out: OPM-2 10% FBS IC50 IP, OPM-2 cells, 10% FBS, 16 h, CellTiter-Glo
[4] = TR-FRET, Mcl-1(171-327) / biotin-Bim (51-76)
[5] = read-out: OPM-2 10% FBS IC50 IP, OPM-2 cells, 10% FBS, 16 h, CellTiter-Glo

| Compound | IC50 [1, 3] [nM] | IC50 [2, 4] [nM] | IC50 [1, 5] [nM] | IC50 [2] [nM] |
| --- | --- | --- | --- | --- |
| C[C@@H]1[C@@H](C)C/C=C/[C@](O)(C2SCCCS2)[C@@H]2CC[C@H]2CN2C[C@@]3(CCCc4cc(Cl)ccc43)COc3ccc(cc32)C(=O)NS1(=O)=O [Example 100259, (1S,3′R,6′R,7′R,8′E,11′S,12′R)-6-chloro-7′-(1,3-dithian-2-yl)-7′-hydroxy-11′,12′-dimethyl-3,4-dihydro-2H,15′H-spiro[naphthalene-1,22′-[20]oxa[13]thia[1,14]diazatetracyclo [14.7.2.0~3,6~.0~19,24~]pentacosa[8,16,18,24]tetraen]-15′-one 13′,13′-dioxide] | 1250 | 6.18 | – | – |
| C[C@@H]1[C@@H](C)C/C=C/[C@@](O)(C2SCCCS2)[C@@H]2CC[C@H]2CN2C[C@@]3(CCCc4cc(Cl)ccc43)COc3ccc(cc32)C(=O)NS1(=O)=O [Example 100260, (1S,3′R,6′R,7′S,8′E,11′S,12′R)-6-chloro-7′-(1,3-dithian-2-yl)-7′-hydroxy-11′,12′-dimethyl-3,4-dihydro-2H,15′H-spiro[naphthalene-1,22′-[20]oxa[13]thia[1,14]diazatetracyclo [14.7.2.0~3,6~.0~19,24~]pentacosa[8,16,18,24]tetraen]-15′-one 13′,13′-dioxide] | 94 | 0.408 | – | – |
| CO[C@@]1(C2SCCCS2)/C=C/C[C@H](C)[C@@H](C)S(=O)(=O)NC(=O)c2ccc3c(c2)N(C[C@@H]2CC[C@H]21)C[C@@]1(CCCc2cc(Cl)ccc21)CO3 [Example 100261, (1S,3′R,6′R,7′S,8′E,11′S,12′R)-6-chloro-7′-(1,3-dithian-2-yl)-7′-methoxy-11′,12′-dimethyl-3,4-dihydro-2H,15′H-spiro[naphthalene-1,22′-[20]oxa[13]thia[1,14]diazatetracyclo [14.7.2.0~3,6~.0~19,24~]pentacosa[8,16,18,24]tetraen]-15′-one 13′,13′-dioxide] | 533 | 1.22 | – | – |
| CC(=O)N[C@@]1(C#N)CCC[C@H](C)[C@@H](C)S(=O)(=O)NC(=O)c2ccc3c(c2)N(C[C@@H]2CC[C@H]21)C[C@@]1(CCCc2cc(Cl)ccc21)CO3 [Example 100263, N-((1S,3′R,6′R,7′S,11′S,12′R)-6-chloro-7′-cyano-11′,12′-dimethyl-13′,13′-dioxido-15′-oxo-3,4-dihydro-2H-spiro[naphthalene-1,22′-[20]oxa[13]thia[1,14]diazatetracyclo [14.7.2.0~3,6~.0~19,24~]pentacosa[16,18,24]trien]-7′-yl)acetamide] | 3390 | 1.83 | – | – |
| C[C@@H]1[C@@H](C)C/C=C/[C@@]2(COCCO2)[C@@H]2CC[C@H]2CN2C[C@@]3(CCCc4cc(Cl)ccc43)COc3ccc(cc32)C(=O)NS1(=O)=O [Example 100264, (2S,3′R,6′R,8′E,11′S,12′R,22′S)-6″-chloro-11′,12′-dimethyl-3″,4″-dihydro-2″H,15′H-dispiro[1,4-dioxane-2,7′-[20]oxa[13]thia[1,14]diazatetracyclo [14.7.2.0~3,6~.0~19,24~]pentacosa[8,16,18,24]tetraene-22′,1″-naphthalen]-15′-one 13′,13′-dioxide] | – | 0.384 | 600 | – |
| CC(=O)N[C@@]1(CO)CCC[C@H](C)[C@@H](C)S(=O)(=O)NC(=O)c2ccc3c(c2)N(C[C@@H]2CC[C@H]21)C[C@@]1(CCCc2cc(Cl)ccc21)CO3 [Example 100265, N-((1S,3′R,6′R,7′S,11′S,12′R)-6-chloro-7′-(hydroxymethyl)-11′,12′-dimethyl-13′,13′-dioxido-15′-oxo-3,4-dihydro-2H-spiro[naphthalene-1,22′-[20]oxa[13]thia[1,14]diazatetracyclo [14.7.2.0~3,6~.0~19,24~]pentacosa[16,18,24]trien]-7′-yl)acetamide] | 441 | 0.439 | – | – |
| CC#C[C@]1(O)CCC[C@H](C)[C@@H](C)S(=O)(=O)NC(=O)c2ccc3c(c2)N(C[C@@H]2CC[C@H]21)C[C@@]1(CCCc2cc(Cl)ccc21)CO3 [Example 100267, (1S,3′R,6′R,7′S,11′S,12′R)-6-chloro-7′-hydroxy-11′,12′-dimethyl-7′-(1-propyn-1-yl)-3,4-dihydro-2H,15′H-spiro[naphthalene-1,22′-[20]oxa[13]thia[1,14]diazatetracyclo [14.7.2.0~3,6~.0~19,24~]pentacosa[16,18,24]trien]-15′-one 13′,13′-dioxide] | – | – | 274 | 0.166 |
| CC#C[C@]1(O)CCC[C@H](C)[C@@H](C)S(=O)(=O)NC(=O)c2ccc3c(c2)N(C[C@@H]2CC[C@H]21)C[C@@]1(CCCc2cc(Cl)ccc21)CO3 [Example 100268, (1S,3′R,6′R,7′S,11′S,12′R)-6-chloro-7′-hydroxy-11′,12′-dimethyl-7′-(1-propyn-1-yl)-3,4-dihydro-2H,15′H-spiro[naphthalene-1,22′-[20]oxa[13]thia[1,14]diazatetracyclo [14.7.2.0~3,6~.0~19,24~]pentacosa[16,18,24]trien]-15′-one 13′,13′-dioxide] | – | – | 3810 | 3.44 |
| C[C@@H]1[C@@H](C)CCC[C@@]2(COCCN2)[C@@H]2CC[C@H]2CN2C[C@@]3(CCCc4cc(Cl)ccc43)COc3ccc(cc32)C(=O)NS1(=O)=O [Example 100269, (1S,3′R,6′R,7′S,11′S,12′R)-6-chloro-11′,12′-dimethyl-3,4-dihydro-2H,15′H-dispiro[naphthalene-1,22′-[20]oxa[13]thia[1,14]diazatetracyclo [14.7.2.0~3,6~.0~19,24~]pentacosa[16,18,24]triene-7′,3″-[1,4]oxazinan]-15′-one 13′,13′-dioxide] | 1230 | 0.908 | – | – |
| C[C@@H]1[C@@H](C)CCC[C@@](O)(COS(C)(=O)=O)[C@@H]2CC[C@H]2CN2C[C@@]3(CCCc4cc(Cl)ccc43)COc3ccc(cc32)C(=O)NS1(=O)=O [Example 100271, ((1S,3′R,6′R,7′S,11′S,12′R)-6-chloro-7′-hydroxy-11′,12′-dimethyl-13′,13′-dioxido-15′-oxo-3,4-dihydro-2H-spiro[naphthalene-1,22′-[20]oxa[13]thia[1,14]diazatetracyclo [14.7.2.0~3,6~.0~19,24~]pentacosa[16,18,24]trien]-7′-yl)methyl methanesulfonate] | – | – | 6120 | 2.48 |
| CC(=O)N[C@@]1(CN2CCOCC2)CCC[C@H](C)[C@@H](C)S(=O)(=O)NC(=O)c2ccc3c(c2)N(C[C@@H]2CC[C@H]21)C[C@@]1(CCCc2cc(Cl)ccc21)CO3 [Example 100272, N-((1S,3′R,6′R,7′S,11′S,12′R)-6-chloro-11′,12′-dimethyl-7′-(4-morpholinylmethyl)-13′,13′-dioxido-15′-oxo-3,4-dihydro-2H-spiro[naphthalene-1,22′-[20]oxa[13]thia[1,14]diazatetracyclo [14.7.2.0~3,6~.0~19,24~]pentacosa[16,18,24]trien]-7′-yl)acetamide] | 349 | 0.401 | – | – |
| C[C@@H]1[C@@H](C)C/C=C/[C@@](O)(c2ncccn2)[C@@H]2CC[C@H]2CN2C[C@@]3(CCCc4cc(Cl)ccc43)COc3ccc(cc32)C(=O)NS1(=O)=O [Example 100275, (1S,3′R,6′R,7′S,8′E,11′S,12′R)-6-chloro-7′-hydroxy-11′,12′-dimethyl-7′-(2-pyrimidinyl)-3,4-dihydro-2H,15′H-spiro[naphthalene-1,22′-[20]oxa[13]thia[1,14]diazatetracyclo [14.7.2.0~3,6~.0~19,24~]pentacosa[8,16,18,24]tetraen]-15′-one 13′,13′-dioxide] | 309 | 0.113 | – | – |
| CO[C@]1(c2ncccn2)CCC[C@H](C)[C@@H](C)S(=O)(=O)NC(=O)c2ccc3c(c2)N(C[C@@H]2CC[C@H]21)C[C@@]1(CCCc2cc(Cl)ccc21)CO3 [Example 100276, (1S,3′R,6′R,7′R,11′S,12′R)-6-chloro-7′-methoxy-11′,12′-dimethyl-7′-(2-pyrimidinyl)-3,4-dihydro-2H,15′H-spiro[naphthalene-1,22′-[20]oxa[13]thia[1,14]diazatetracyclo [14.7.2.0~3,6~.0~19,24~]pentacosa[16,18,24]trien]-15′-one 13′,13′-dioxide] | 1530 | 0.326 | – | – |
| COCCN(C)C(=O)C[C@]1(O)/C=C/C[C@H](C)[C@@H](C)S(=O)(=O)NC(=O)c2ccc3c(c2)N(C[C@@H]2CC[C@H]21)C[C@@]1(CCCc2cc(Cl)ccc21)CO3 [Example 100277, 2-((1S,3′R,6′R,7′S,8′E,11′S,12′R)-6-chloro-7′-hydroxy-11′,12′-dimethyl-13′,13′-dioxido-15′-oxo-3,4-dihydro-2H-spiro[naphthalene-1,22′-[20]oxa[13]thia[1,14]diazatetracyclo [14.7.2.0~3,6~.0~19,24~]pentacosa[8,16,18,24]tetraen]-7′-yl)-N-(2-methoxyethyl)-N-methylacetamide] | 448 | 0.266 | – | – |
| CO[C@]1(c2ncccn2)/C=C/C[C@H](C)[C@@H](C)S(=O)(=O)NC(=O)c2ccc3c(c2)N(C[C@@H]2CC[C@H]21)C[C@@]1(CCCc2cc(Cl)ccc21)CO3 [Example 100278, (1S,3′R,6′R,7′R,8′E,11′S,12′R)-6-chloro-7′-methoxy-11′,12′-dimethyl-7′-(2-pyrimidinyl)-3,4-dihydro-2H,15′H-spiro[naphthalene-1,22′-[20]oxa[13]thia[1,14]diazatetracyclo [14.7.2.0~3,6~.0~19,24~]pentacosa[8,16,18,24]tetraen]-15′-one 13′,13′-dioxide] | 333 | 0.458 | – | – |
| C[C@@H]1[C@@H](C)CCC[C@](O)(c2ncccn2)[C@@H]2CC[C@H]2CN2C[C@@]3(CCCc4cc(Cl)ccc43)COc3ccc(cc32)C(=O)NS1(=O)=O [Example 100279, (1S,3′R,6′R,7′R,11′S,12′R)-6-chloro-7′-hydroxy-11′,12′-dimethyl-7′-(2-pyrimidinyl)-3,4-dihydro-2H,15′H-spiro[naphthalene-1,22′-[20]oxa[13]thia[1,14]diazatetracyclo [14.7.2.0~3,6~.0~19,24~]pentacosa[16,18,24]trien]-15′-one 13′,13′-dioxide] | – | – | 3250 | 0.777 |
